Assay in all cases: NCI tumour cell line growth inhibition, 48 h
For test [1], the system named is NCI/ADR-RES.
Test [2] concerns OVCAR-8.
For test [3], the system named is NCI-H522.
Test [4] relates to SR.
In test [5] the test system is BT-549.
Test [6] concerns SK-OV-3.
For test [7], the system named is SW-620.
The test system of test [8] is MDA-MB-435.
Test [9] has as its system MCF7.
In test [10] the test system is ACHN.
The test system of test [11] is NCI-H23.
The test system of test [12] is RXF 393.
Test [13] deals with KM12.
In test [14] the test system is PC-3.
Test [15] has as its system HCC 2998.
The subject of test [16] is SNB-75.
In test [17] the test system is 786-0.
Test [18] deals with M14.
For test [19], the system named is SK-MEL-2.

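Values below derive from 48-hour exposures of cells grown in 96-well plates, with endpoints linearly interpolated between the two concentrations bracketing the appropriate inhibition level. Abbreviation: GI50, concentration required for 50% inhibition of growth.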 Active and inactive are the calls of the source. Cut-off read from the data, not from the text of the source: active = GI50 up to about 1.1 µM and inactive = higher.

As to `CCC(/C=C/c1ccccc1)=N\NC(=S)N/N=C(/C=C/c1ccccc1)CC`, the GI50 in test [1] was 29.6 µM (inactive); in test [2], 20.4 µM (inactive); in test [3], 30.5 µM (inactive); in test [4], 16.9 µM (inactive); in test [5], > 100 µM (inactive); in test [6], 20.1 µM (inactive). Further, the GI50 in test [7] is > 100 µM (inactive); in test [8] it was 46.5 µM (inactive); in test [9], 41.8 µM (inactive); in test [10] it was 34.2 µM (inactive); in test [11], 84.3 µM (inactive); in [12], 38.5 µM (inactive). Also, the GI50 in test [13] was 31.8 µM (inactive); in test [14], 72.9 µM (inactive); in [15] it was 84.1 µM (inactive); in test [16], > 100 µM (inactive); in test [17], 48 µM (inactive); in test [18], 46.1 µM (inactive).

In the case of `CNC(=O)Nn1c(SC)nc2ccccc21`, the GI50 in test [1], in test [2], in test [3], in test [4], in [5] and in test [6] was > 100 µM (inactive) in each case. In addition, the GI50 in [7], in test [8], in test [9], in [10], in test [11] and in test [19] was > 100 µM (inactive) throughout. The GI50 in test [12], in test [13], in test [14], in [15], in [17] and in test [18] was > 100 µM (inactive) in each case.

Regarding `O=Cc1ccc(-c2ccc(S(=O)(=O)O)cc2)o1`, the GI50 in test [1], in test [2], in test [3], in test [4], in [5] and in test [6] was > 100 µM (inactive) each time. Moreover, the GI50 in [7], in test [8], in [9], in test [10], in test [11] and in test [19] was > 100 µM (inactive) in each case. Further, the GI50 in test [12], in test [13], in test [14], in test [15], in test [17] and in test [18] was > 100 µM (inactive) each time.

For the compound `OCCOc1ccccc2cccc1-2`, the GI50 in test [1] is > 100 µM (inactive); in test [2], > 100 µM (inactive); in [3], > 100 µM (inactive); in [4], 80 µM (inactive); in test [5], > 100 µM (inactive); in test [6], > 100 µM (inactive). The GI50 in test [7], in test [8], in test [9], in test [10], in test [11] and in test [19] was > 100 µM (inactive) in each case. The GI50 in test [13], in [14], in test [15], in test [16], in test [17] and in [18] was > 100 µM (inactive) each time.

In the case of `COC(=O)/C=C\[C@H]1[C@H](C)N1S(=O)(=O)c1ccc(C)cc1` (stereo partly specified), the GI50 in [1] was > 100 µM (inactive); in test [2] it was > 100 µM (inactive); in test [3] it was 20.4 µM (inactive); in test [4], > 100 µM (inactive); in test [5] it was > 100 µM (inactive); in [6], > 100 µM (inactive). The GI50 in test [7], in [8], in [9], in [10], in [11] and in [19] was > 100 µM (inactive) each time. Besides, the GI50 in [12], in test [13], in test [14], in test [15], in test [17] and in test [18] was > 100 µM (inactive) in each case.

Regarding `O=C1NC(N2CCOCC2)=N/C1=C\c1ccccc1`, the GI50 in [1], in test [2], in test [3], in test [4], in [5] and in test [6] was > 100 µM (inactive) in each case. Moreover, the GI50 in test [7], in [8], in test [9], in [10], in test [11] and in [19] was > 100 µM (inactive) each time. For the same compound, the GI50 in [13], in test [14], in [15], in [16], in test [17] and in test [18] was > 100 µM (inactive) throughout.

As for `COCC1OC(S(=O)(=O)c2ccccc2)C(O)C(OC)C1OC` (stereo unspecified), the GI50 in [1], in [2], in [3], in [4], in test [5] and in test [6] was > 100 µM (inactive) in each case. The GI50 in test [7], in [8], in [9], in test [10], in [11] and in [19] was > 100 µM (inactive) each time. The GI50 in test [12], in test [13], in test [14], in test [15], in test [17] and in [18] was > 100 µM (inactive) throughout.

Turning to `C/C(=N\NC(=O)c1ccccc1O)c1cccc(/C(C)=N/NC(=O)c2ccccc2O)n1`, the GI50 was 27.6 µM (inactive) in test [1]; 2.13 µM (inactive) in test [2]; 1.89 µM (inactive) in test [4]; > 39.4 µM (inactive) in test [5]; 4.12 µM (inactive) in [6]; 5.74 µM (inactive) in [7]. Moreover, the GI50 is 41.8 µM (inactive) in [8]; 26.2 µM (inactive) in test [9]; 4.27 µM (inactive) in test [10]; 10.2 µM (inactive) in test [19]; 8.55 µM (inactive) in test [12]; 6.5 µM (inactive) in test [13]. The GI50 in test [14] is 7.1 µM (inactive); in test [15] it was 1.02 µM (active); in test [16], 12.1 µM (inactive); in test [17], 5.32 µM (inactive); in [18], 12.6 µM (inactive).

As for `C/C=C\C(CC(=O)NCCC1CN(S(=O)(=O)C(F)(F)F)c2ccccc21)CC(=O)OC` (stereo unspecified), the GI50 in [1] is 29.6 µM (inactive); in test [2] it was 38.8 µM (inactive); in test [3], 18.3 µM (inactive); in [4], > 100 µM (inactive); in test [5], 27.4 µM (inactive); in test [6], 64.3 µM (inactive). The GI50 in test [7] is 55.8 µM (inactive); in test [8], > 10 µM (inactive); in [9], 49.9 µM (inactive); in [10], 37.6 µM (inactive); in test [11], 34.7 µM (inactive); in [19], 32.1 µM (inactive). In addition, the GI50 is 36.3 µM (inactive) in test [12]; 26.9 µM (inactive) in test [13]; 35.4 µM (inactive) in [14]; 53.3 µM (inactive) in test [15]; 34.2 µM (inactive) in [17]; 36.5 µM (inactive) in [18].

Regarding `COC(=O)C1=C(O)C(C(=O)OC)[C@]2(O)[C@H](C(=O)OC)[C@H]1C[C@@H](c1ccc(Cl)cc1Cl)[C@H]2C(=O)OC` (stereo partly specified), the GI50 in test [1] was 3.83 µM (inactive); in [2], 4.81 µM (inactive); in test [4], 4.06 µM (inactive); in [5], 6.31 µM (inactive); in [6], 13.2 µM (inactive); in [7] it was 6.01 µM (inactive). Further, the GI50 in test [8] is 4.09 µM (inactive); in test [9] it was 4.79 µM (inactive); in [10] it was 11 µM (inactive); in test [11], 4.34 µM (inactive); in [19], 4.7 µM (inactive); in test [12], 7.76 µM (inactive). The GI50 in test [13] was 12.3 µM (inactive); in test [14], 8.41 µM (inactive); in test [15], 10.1 µM (inactive); in test [16], 8.61 µM (inactive); in test [17], 26.3 µM (inactive); in test [18] it was 6.24 µM (inactive).

Take `C=CCC1(O)CC(n2cc(C)c(=O)[nH]c2=O)OC1CO[Si](C)(C)C(C)(C)C` (stereo unspecified): the GI50 is 43.1 µM (inactive) in [1]; 42.9 µM (inactive) in [2]; 45 µM (inactive) in [4]; 46.3 µM (inactive) in [5]; 73.1 µM (inactive) in [7]; 41.5 µM (inactive) in test [8]. Moreover, the GI50 was 47.8 µM (inactive) in test [9]; 45.6 µM (inactive) in [10]; 44 µM (inactive) in [11]; 22.3 µM (inactive) in [19]; 29 µM (inactive) in [12]; 45.3 µM (inactive) in [13]. The GI50 in [14] is 36.5 µM (inactive); in [15] it was 24.5 µM (inactive); in [16] it was 38 µM (inactive); in test [17], 44.1 µM (inactive); in test [18], 46.7 µM (inactive).
